Values quoted from earlier work in patent US20050272698A1, “Liquid stable composition of oxazaphosphorine with mesna” (priority 2002, published 2005).

Row | Compound | solubility in water
1 | O=P1(NCCCl)OCCCN1CCCl (centres unmarked) [Ifosfamide, 3-(2-chloroethyl)-2-[(2-chloroethyl)amino]tetrahydro-2H-1,3,2-oxazaphosphorin-2-oxide] | freely soluble in water
2 | O=S(=O)([O-])CCS.[Na+] [Mesna, sodium-2-mercaptoethanesulphonate] | highly water soluble
